Test results as given in publication PMC4315410, “A New PAMPA Model Proposed on the Basis of a Synthetic Phospholipid Membrane” (PLoS ONE, 2015).
Where a name gives a salt, the structure may show the parent alone.

Legend:
[1] = PAMPA with synthetic phospholipid membrane, decyl chain (C10); format: in vitro ADME; conditions: for Papp at 16 h: PAMPA, read-out: P e
Description: (§1) In PAMPA, a “sandwich” structure was formed by a 96-well microtiter plate and a 96-well filter plate from Millipore (IPVH, 125 μm thick filter, 0.45 μm pore), then wetted with a 4 μl 2% w/v phospholipid compound solution in n-dodecane [27].
(§2) The stock solutions of the drug samples were prepared at 10 mM concentrations in DMSO and stored at 0°C before use. Before being added to a 96-well filter plate, the stock solution was diluted first with buffer to achieve a final sample concentration of 10∼50 μM and to reduce the DMSO concentration below 1% (v/v).
(§3) The PAMPA plate was filled with a 300 μl diluted drug solution to prepare the “donor” wells, and the 96-well filter plate containing a synthetic phospholipid membrane was then placed on the donor wells. The “acceptor” wells were filled with 200 μl of buffer solution and placed on top of the “sandwich”, and the PAMPA instruments were incubated at 25°C in a sealed and saturated humidity container for a specified time. After reaching the permeation time, the PAMPA plate sandwich was separated, and the amount of drugs in both the donor and acceptor compartments were measured by comparing the experimental spectra with the UV spectrum (220∼400 nm) obtained from reference standards.
(§4) The factor S was the fraction of samples remaining in the donor and the acceptor wells at time t.
(§5) In the incubation time assays, the pH was 7.4 in both the donor and acceptor wells. In the pH-gradient assays, the pH of the drug solutions was varied using NaOH-treated universal buffer (pION Inc.) in the donor wells, and the pH in the acceptor solution was pH 7.4 [15]. In addition, the incubation time in the pH-gradient test assays was 16 h.

[2] = parameters: method as in PMID 11576780, PMID 9691477; conditions: cited from earlier work
[3] = PAMPA with synthetic phospholipid membrane, octyl chain (C8); format: in vitro ADME; conditions: for Papp at 16 h: PAMPA, read-out: P e
Description: as §1, §2, §3, §4, §5

[4] = PAMPA with synthetic phospholipid membrane, lauryl chain (C12); format: in vitro ADME; conditions: for Papp at 16 h: PAMPA, read-out: P e
Description: as §1, §2, §3, §4, §5

[5] = parameters: method as in Chinese Pharmacopoeia, 2005 edition and references 15, 27, 38; conditions: ref Chinese Pharmacopoeia, 2005 edition and references 15, 27, 38; cited from earlier work
[6] = parameters: method as in DrugBank database; conditions: ref DrugBank database; cited from earlier work
[7] = C10, donor pH 4.6, acceptor pH 7.4, 16 h
[8] = C10, donor pH 4.98, acceptor pH 7.4, 16 h
[9] = C10, donor pH 6.57, acceptor pH 7.4, 16 h
[10] = C10, donor pH 8.2, acceptor pH 7.4, 16 h
[11] = C10, donor pH 9.32, acceptor pH 7.4, 16 h
[12] = pH 7.4, C10 membrane, incubation time 16 h, pH 7.4 donor and acceptor, 25°C
[13] = C8, donor pH 4.6, acceptor pH 7.4, 16 h
[14] = C8, donor pH 4.98, acceptor pH 7.4, 16 h
[15] = C8, donor pH 6.57, acceptor pH 7.4, 16 h
[16] = C8, donor pH 8.2, acceptor pH 7.4, 16 h
[17] = C8, donor pH 9.32, acceptor pH 7.4, 16 h
[18] = pH 7.4, C8 membrane, incubation time 16 h, pH 7.4 donor and acceptor, 25°C
[19] = C12, donor pH 4.6, acceptor pH 7.4, 16 h
[20] = C12, donor pH 4.98, acceptor pH 7.4, 16 h
[21] = C12, donor pH 6.57, acceptor pH 7.4, 16 h
[22] = C12, donor pH 8.2, acceptor pH 7.4, 16 h
[23] = C12, donor pH 9.32, acceptor pH 7.4, 16 h
[24] = pH 7.4, C12 membrane, incubation time 16 h, pH 7.4 donor and acceptor, 25°C

Structure (SMILES) | P e [1, 7] | P e [1, 8] | P e [1, 9] | P e [1, 10] | P e [1, 11] | Papp at 16 h [1, 12] [×10⁻⁶ cm/s] | P e [3, 15] | P e [3, 16] | P e [3, 17] | Papp at 16 h [3, 18] [×10⁻⁶ cm/s] | P e [4, 19] | P e [4, 20] | P e [4, 21] | P e [4, 22] | P e [4, 23] | Papp at 16 h [4, 24] [×10⁻⁶ cm/s] | Papp at 16 h [3, 13] [×10⁻⁶ cm/s] | %FA (human fraction absorbed) [2] [%] | P e [3, 14] | Water solubility [6] [mg] | other results
CC1(C)S[C@@H]2[C@H](NC(=O)[C@H](N)c3ccc(O)cc3)C(=O)N2[C@H]1C(=O)O [Amoxicillin] | 1.9 ×10^–7 cm/s | 2.1 ×10^–7 cm/s | 2.5 ×10^–7 cm/s | 2.3 ×10^–7 cm/s | 2.2 ×10^–7 cm/s | 5.3 ± 0.3 | 2.6 ×10^–7 cm/s | 2.4 ×10^–7 cm/s | 2.2 ×10^–7 cm/s | 4.6 ± 0.4 | 1.9 ×10^–7 cm/s | 2.1 ×10^–7 cm/s | 2.6 ×10^–7 cm/s | 2.3 ×10^–7 cm/s | 2.0 ×10^–7 cm/s | 5.7 ± 0.4 | – | 93 | 2.1 ×10^–7 cm/s | – | P e [3, 13]: 1.9 ×10^–7 cm/s; pKa (second value listed) [5]: 7.31; pKa (third value listed) [5]: 9.53
O=C(N[C@H](CO)[C@H](O)c1ccc([N+](=O)[O-])cc1)C(Cl)Cl [Chloroamphenicol] | – | – | – | – | 0.5 ×10^–6 cm/s | 9.8 ± 0.3 | – | – | – | 8.8 ± 0.2 | – | 4.2 ×10^–6 cm/s | – | 0.7 ×10^–6 cm/s | 0.5 ×10^–6 cm/s | 14.6 ± 0.3 | 4.3 | – | 4.2 ×10^–6 cm/s | – | Papp at 16 h [1, 7]: 4.2 ×10⁻⁶ cm/s; Papp at 16 h [1, 8]: 4 ×10⁻⁶ cm/s; Papp at 16 h [1, 9]: 1 ×10⁻⁶ cm/s; Papp at 16 h [1, 10]: 0.7 ×10⁻⁶ cm/s; Papp at 16 h [3, 15]: 1.7 ×10⁻⁶ cm/s; Papp at 16 h [3, 16]: 0.6 ×10⁻⁶ cm/s; Papp at 16 h [3, 17]: 0.5 ×10⁻⁶ cm/s; Papp at 16 h [4, 19]: 4.4 ×10⁻⁶ cm/s; Papp at 16 h [4, 21]: 1.5 ×10⁻⁶ cm/s; pKa (first value listed) [5]: 4.3
CN/C(=N/CCSCc1nc[nH]c1C)NC#N [Cimetidine] | 1.8 ×10^–6 cm/s | – | 2.6 ×10^–6 cm/s | – | – | 2.8 ± 0.3 | 2.6 ×10^–6 cm/s | 3.2 ×10^–6 cm/s | – | 2.6 ± 0.4 | 1.8 ×10^–6 cm/s | 1.9 ×10^–6 cm/s | – | 3.2 ×10^–6 cm/s | 3.4 ×10^–6 cm/s | 3.2 ± 0.3 | 1.8 | 85 | – | 9380 | Papp at 16 h [1, 8]: 1.9 ×10⁻⁶ cm/s; Papp at 16 h [1, 10]: 3.1 ×10⁻⁶ cm/s; Papp at 16 h [1, 11]: 3.4 ×10⁻⁶ cm/s; Papp at 16 h [3, 14]: 1.6 ×10⁻⁶ cm/s; Papp at 16 h [3, 17]: 3.7 ×10⁻⁶ cm/s; Papp at 16 h [4, 21]: 2.7 ×10⁻⁶ cm/s; pKa (first value listed) [5]: 7.23
COCCc1ccc(OCC(O)CNC(C)C)cc1 (stereo not drawn) [Metoprolol Tartrate] | 1.4 ×10^–5 cm/s | 2.5 ×10^–5 cm/s | 5.3 ×10^–5 cm/s | 7.5 ×10^–5 cm/s | 9.3 ×10^–5 cm/s | 10.3 ± 0.5 | 5.1 ×10^–5 cm/s | 8.0 ×10^–5 cm/s | 8.9 ×10^–5 cm/s | 9.2 ± 0.6 | 1.6 ×10^–5 cm/s | 2.6 ×10^–5 cm/s | 5.0 ×10^–5 cm/s | 8.0 ×10^–5 cm/s | 9.1 ×10^–5 cm/s | 11.7 ± 0.5 | – | – | 2.7 ×10^–5 cm/s | 16900 | –
CNC(=C[N+](=O)[O-])NCCSCc1ccc(CN(C)C)o1 [Ranitidine] | 1.6 ×10^–7 cm/s | 1.8 ×10^–7 cm/s | 3.1 ×10^–7 cm/s | 5.8 ×10^–7 cm/s | 5.5 ×10^–7 cm/s | 1.4 ± 0.1 | 3.2 ×10^–7 cm/s | 4.9 ×10^–7 cm/s | – | 1.2 ± 0.1 | 1.6 ×10^–7 cm/s | 1.8 ×10^–7 cm/s | 3.2 ×10^–7 cm/s | 4.9 ×10^–7 cm/s | 5.4 ×10^–7 cm/s | 1.5 ± 0.1 | – | 55 | 1.8 ×10^–7 cm/s | 24.7 | P e [3, 13]: 1.6 ×10^–7 cm/s

More lines, main results first:

P e [1, 7] | P e [1, 8] | P e [1, 9] | P e [1, 10] | P e [1, 11] | Papp at 16 h [1, 12] [×10⁻⁶ cm/s] | P e [3, 15] | P e [3, 16] | P e [3, 17] | Papp at 16 h [3, 18] [×10⁻⁶ cm/s] | P e [4, 19] | P e [4, 20] | P e [4, 21] | P e [4, 22] | P e [4, 23] | Papp at 16 h [4, 24] [×10⁻⁶ cm/s] | Papp at 16 h [3, 13] [×10⁻⁶ cm/s] | Structure (SMILES) | %FA (human fraction absorbed) [2] [%] | P e [3, 14] | Water solubility [6] [mg] | other results
– | 2.2 ×10^–6 cm/s | – | – | – | 2.8 ± 0.2 | – | – | – | 2.7 ± 0.3 | 1.2 ×10^–6 cm/s | 1.2 ×10^–6 cm/s | – | – | – | 3.2 ± 0.4 | 1.1 | NC(N)=Nc1nc(CSCCC(N)=NS(N)(=O)=O)cs1 [Famotidine] | 40 | – | 1000 | Papp at 16 h [1, 7]: 1.2 ×10⁻⁶ cm/s; Papp at 16 h [1, 9]: 5.7 ×10⁻⁶ cm/s; Papp at 16 h [1, 11]: 5.5 ×10⁻⁶ cm/s; Papp at 16 h [3, 14]: 2.2 ×10⁻⁶ cm/s; Papp at 16 h [3, 15]: 5 ×10⁻⁶ cm/s; Papp at 16 h [3, 17]: 5.1 ×10⁻⁶ cm/s; Papp at 16 h [4, 21]: 6 ×10⁻⁶ cm/s; Papp at 16 h [4, 23]: 6.1 ×10⁻⁶ cm/s; pKa (first value listed) [5]: 7.24; pKa (second value listed) [5]: 11.19
23.0 ×10^–6 cm/s | – | – | – | 2.6 ×10^–6 cm/s | 14.5 ± 0.5 | – | – | – | 13.9 ± 0.5 | – | 23.0 ×10^–6 cm/s | – | 1.5 ×10^–6 cm/s | 2.6 ×10^–6 cm/s | 16.7 ± 0.4 | 23 | CC(C)Cc1ccc(C(C)C(=O)O)cc1 (stereo not drawn) [Ibuprofen] | – | – | 21 | Papp at 16 h [1, 8]: 22 ×10⁻⁶ cm/s; Papp at 16 h [1, 9]: 7 ×10⁻⁶ cm/s; Papp at 16 h [1, 10]: 1.5 ×10⁻⁶ cm/s; Papp at 16 h [3, 14]: 23.5 ×10⁻⁶ cm/s; Papp at 16 h [3, 15]: 8.5 ×10⁻⁶ cm/s; Papp at 16 h [3, 16]: 3 ×10⁻⁶ cm/s; Papp at 16 h [3, 17]: 2.6 ×10⁻⁶ cm/s; Papp at 16 h [4, 19]: 22.5 ×10⁻⁶ cm/s; Papp at 16 h [4, 21]: 7.5 ×10⁻⁶ cm/s
1.5 ×10^–7 cm/s | 1.6 ×10^–7 cm/s | 3.2 ×10^–7 cm/s | 5.8 ×10^–7 cm/s | 7.2 ×10^–7 cm/s | 2.9 ± 0.3 | 3.2 ×10^–7 cm/s | 4.9 ×10^–7 cm/s | 7.4 ×10^–7 cm/s | 2.4 ± 0.4 | 1.6 ×10^–7 cm/s | 1.7 ×10^–7 cm/s | 3.1 ×10^–7 cm/s | 4.9 ×10^–7 cm/s | 7.3 ×10^–7 cm/s | 3.4 ± 0.2 | – | CN(C)C(=N)N=C(N)N [Metformin Hydrochloride] | – | 1.6 ×10^–7 cm/s | – | P e [3, 13]: 1.5 ×10^–7 cm/s
1.9 ×10^–6 cm/s | – | – | 2.5 ×10^–6 cm/s | 2.3 ×10^–6 cm/s | 1 ± 0.1 | – | 2.5 ×10^–6 cm/s | 2.2 ×10^–6 cm/s | 0.9 ± 0.1 | – | 2.2 ×10^–6 cm/s | 2.6 ×10^–6 cm/s | 2.6 ×10^–6 cm/s | 2.2 ×10^–6 cm/s | – | 1.9 | CCn1cc(C(=O)O)c(=O)c2cc(F)c(N3CCNCC3)cc21 [Norfloxacin] | – | – | 178000 | Papp at 16 h [1, 8]: 2.2 ×10⁻⁶ cm/s; Papp at 16 h [1, 9]: 2.5 ×10⁻⁶ cm/s; Papp at 16 h [3, 14]: 2.3 ×10⁻⁶ cm/s; Papp at 16 h [3, 15]: 2.6 ×10⁻⁶ cm/s; P e ([4]; C12 membrane, incubation time 16 h, pH 7.4 donor and acceptor, 25°C): 1.0±0.1 10^−6 cm/s; Papp at 16 h [4, 19]: 1.8 ×10⁻⁶ cm/s; pKa (first value listed) [5]: 6.26
